Article PMC8579695, “The Stringent Response Inhibits 70S Ribosome Formation in Staphylococcus aureus by Impeding GTPase-Ribosome Interactions” (mBio, 2021)
Where two headings read alike, the source gives them in different places.

Legend:
[1] = system: HflX association to the 30S and 50S ribosomal subunits; experiment: In vitro ribosome association assay (sucrose gradient, α-His Western immunoblot), HflX; type: binding, Staphylococcus aureus; conditions: 40 μM nucleotide; compared to apo, GTP, or GMPPNP-bound states
Excerpt: (§1) It is well characterized that rRNA transcription decreases during the stringent response ([39]). In addition, the GTPase activity of ribosome assembly cofactors is inhibited by (p)ppGpp, both of which contribute to a reduction in mature ribosomes within the cell ([27]). To examine mechanistically how (p)ppGpp-GTPase interactions affect the ability of RA-GTPases to associate with ribosomal subunits, we examined the association of each GTPase to either the 30S or 50S ribosomal subunit in the presence of GDP, GTP, ppGpp, and pppGpp, as well as GMPPNP, a nonhydrolyzable analogue of GTP. The production and isolation of immature subunits, which can comprise several different immature states, introduces a large degree of heterogeneity, and so here we, and others, use homogenous mature particles as a system to examine the binding event, rather than the role of GTPase activity in downstream maturation ([11], [12], [29], [40], [41]). His-tagged GTPases were preincubated with highly pure, salt-washed 70S S. aureus ribosomes in a low-magnesium buffer to encourage ribosomal subunit dissociation, and the amount of each GTPase associated with each of the subunits was quantified by Western immunoblotting with anti-His antibodies after sucrose gradient separation. […]
(§2) FIG 2 (p)ppGpp and GDP binding reduces RA-GTPase association to the ribosome. […] After subunit separation and precipitation, bound proteins were detected in the 30S fraction using HRP-conjugated α-His antibodies. […] Bound proteins were detected in the 50S fraction using HRP-conjugated α-His antibodies. […]
(§3) A 500 nM concentration of recombinant 6×His-tagged RA-GTPase was incubated at room temperature for 5 min with 200 nM S. aureus 70S ribosomes in dissociation buffer (20 mM Tris [pH 7.5], 120 mM NH4Cl, 1.5 mM MgCl2, 2 mM β-mercaptoethanol) in the apo form and in the presence of 40 μM GTP, GMPPNP, GDP, ppGpp, or pppGpp. […] Gradients were fractionated by upward displacement of 250-μl aliquots, which were analyzed for RNA content at an absorbance of 260 nm. […]

HflX = HflX (Staphylococcus aureus, UniProt Q2FYY9); experiment: DRaCALA binding of 32P-labeled nucleotides to 6×His-tagged HflX; conditions: mean ± SEM; for Bmax, HflX: Bmax values indicate the fraction bound
HflX, sequence (Q2FYY9 entry or part of it): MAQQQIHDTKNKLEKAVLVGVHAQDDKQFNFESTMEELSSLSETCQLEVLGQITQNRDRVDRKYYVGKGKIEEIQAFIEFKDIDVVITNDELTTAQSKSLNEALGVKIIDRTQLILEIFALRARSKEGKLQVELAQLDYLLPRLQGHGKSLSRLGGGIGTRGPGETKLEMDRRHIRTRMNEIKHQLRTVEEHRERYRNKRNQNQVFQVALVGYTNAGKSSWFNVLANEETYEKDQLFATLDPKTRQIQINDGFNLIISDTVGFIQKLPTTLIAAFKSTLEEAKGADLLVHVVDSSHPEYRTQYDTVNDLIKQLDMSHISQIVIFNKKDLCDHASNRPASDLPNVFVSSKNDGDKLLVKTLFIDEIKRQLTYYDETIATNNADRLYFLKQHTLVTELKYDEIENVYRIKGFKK
Description: (§4) The RA-GTPases RsgA, Era, RbgA, and HflX can bind to the guanosine nucleotides GTP, GDP, ppGpp, and pppGpp. Our previous work observed higher binding affinities for ppGpp over GTP, pointing toward a difference in binding between 5′ di- or triphosphate nucleotides ([27]). […] Furthermore, these previous experiments were performed using recombinant proteins fused to large MBP tags, which could impact binding affinity determination. To examine the nucleotide binding affinities of these RA-GTPases for GDP in comparison to ppGpp, pppGpp, and GTP, and in the absence of a large tag, we used a differential radial capillary action of ligand assay (DRaCALA) with recombinant RsgA, RbgA, Era, and HflX fused to a smaller 6× His tag (Fig. 1B; see also Fig. S2A to C in the supplemental material) ([36]). In each case, the affinities of 5′ diphosphate-containing GDP and ppGpp were similar in the low μM range and were 2- to 6-fold higher than the affinities of either GTP or pppGpp (Table 1).
(§5) Supplementary file : FIG S2 Examination of the binding of GDP, ppGpp, GTP, and pppGpp to RA-GTPases by DRaCALA. (A to C) Determination of binding affinities and Kd values for ^32P-labeled nucleotides to purified recombinant 6×His-tagged RsgA (A), Era (B), and HflX (C). Kd values were determined from the binding curves as previously described ([36]). (D to F) DRaCALA binding assay of recombinant RsgA (D), Era (E), and HflX (F) binding to ^32P-labeled GTP, ppGpp, and pppGpp in the presence or absence of 100 μM cold competitors (GTP, GDP, ppGpp, pppGpp, and ATP). All experiments were carried out in triplicate, with error bars representing standard deviations. Download FIG S2, TIF file, 0.9 MB.
(§6) The synthesis of (p)ppGpp and differential radial capillary action of ligand assay (DRaCALA) binding and competition assays were performed as described previously ([27]), using recombinant, 6×His-tagged protein at the concentrations specified in the figure legends.

Era = Era (Staphylococcus aureus, UniProt Q2FGF6); experiment: DRaCALA binding of 32P-labeled nucleotides to 6×His-tagged Era; conditions: for Bmax, Era: Bmax values indicate the fraction bound
Era, sequence (Q2FGF6 whole entry): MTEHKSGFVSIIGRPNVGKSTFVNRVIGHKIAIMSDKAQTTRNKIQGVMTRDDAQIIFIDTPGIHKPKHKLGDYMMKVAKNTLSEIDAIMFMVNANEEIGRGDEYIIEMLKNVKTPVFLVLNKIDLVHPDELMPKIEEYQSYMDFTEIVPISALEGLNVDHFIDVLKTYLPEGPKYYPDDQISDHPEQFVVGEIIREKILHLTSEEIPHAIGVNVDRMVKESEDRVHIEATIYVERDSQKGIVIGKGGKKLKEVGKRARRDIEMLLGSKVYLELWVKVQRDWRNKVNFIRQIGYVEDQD
Description: as §4, §5, §6

RsgA = RsgA (Staphylococcus aureus, UniProt P67682); experiment: DRaCALA binding of 32P-labeled nucleotides to 6×His-tagged RsgA; conditions: for Bmax, RsgA: Bmax values indicate the fraction bound
RsgA, sequence (P67682 whole entry): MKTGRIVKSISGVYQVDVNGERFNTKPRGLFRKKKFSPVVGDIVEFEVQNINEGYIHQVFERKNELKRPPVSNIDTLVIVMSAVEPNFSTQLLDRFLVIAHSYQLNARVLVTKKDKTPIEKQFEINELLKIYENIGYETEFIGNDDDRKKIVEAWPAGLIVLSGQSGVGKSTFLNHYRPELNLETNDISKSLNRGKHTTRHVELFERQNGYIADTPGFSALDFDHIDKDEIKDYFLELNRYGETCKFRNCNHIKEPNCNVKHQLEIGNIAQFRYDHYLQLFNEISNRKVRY
Description: as §4, §5, §6

[2] = biological target: Era association to the 30S ribosomal subunit (Staphylococcus aureus, UniProt Q2FGF6); experiment: In vitro ribosome association assay (sucrose gradient, α-His Western immunoblot), Era; type: binding; conditions: 40 μM nucleotide; compared to apo, GTP, or GMPPNP-bound states
Era association to the 30S ribosomal subunit, sequence (Q2FGF6 whole entry): as the sequence (Q2FGF6 whole entry) above
Excerpt: as §1, §2, §3

Row | SMILES | reduction in ribosome binding of HflX [1] [fold] | Kd (HflX; 32P-labeled nucleotide, 6×His-tagged protein, read-out: Kd, HflX) [µM] | Bmax, HflX (HflX) | Kd (Era; mean ± SEM, 32P-labeled nucleotide, 6×His-tagged protein, read-out: Kd, Era) [µM] | Bmax, Era (Era; mean ± SEM) | Kd (RsgA; mean ± SEM, 32P-labeled nucleotide, 6×His-tagged protein, read-out: Kd, RsgA) [µM] | Bmax, RsgA (RsgA; mean ± SEM) | reduction in ribosome binding of Era [2] [fold] | Kd (Era) [µM] | Kd (RsgA) [µM]
1 | Nc1nc2c(ncn2[C@@H]2O[C@H](COP(=O)(O)OP(=O)(O)O)[C@@H](OP(=O)(O)OP(=O)(O)O)[C@H]2O)c(=O)[nH]1 [ppGpp] | 2 | 3.4 ± 0.4 | 0.6 ± 0.0 | 4.2 ± 0.6 | 0.4 ± 0.0 | 2.2 ± 0.2 | 0.9 ± 0.0 | 2 | – | –
2 | Nc1nc2c(ncn2[C@@H]2O[C@H](COP(=O)(O)OP(=O)(O)OP(=O)(O)O)[C@@H](OP(=O)(O)OP(=O)(O)O)[C@H]2O)c(=O)[nH]1 [pppGpp] | 2 | – | 0.5 ± 0.2 | – | 0.2 ± 0.0 | – | 0.4 ± 0.0 | 2 | 13.9 ± 4.7 | 10.1 ± 2.2
